The target in the experiment is hCereblon(M1-L442)_hDDB1(M1-H1140) (Homo sapiens (Human), UniProt Q96SW2). The experiment is described as follows: Fluorescence direct binding protocol (tryptophan fluorescence titration). Particulars: fluorescence titration at 20° C., excited at 280 nm, recorded at 340 nm; protein 5.0 E−8 M; assay buffer 50 mM Hepes 7.4 200 mM NaCl; read-out: Fluorescence h-Cereblon_DDB1 Mean Kd_EQ. The protocol:
Fluorescence Direct Binding Protocol
Determination of the affinities of compounds to protein containing one or more tryptophan is measurable by monitoring the fluorescence emission in direct mode. The measurements depending on the protein available amounts are performed either manually in a cuvette on ISS-PC1 photon counting spectrofluorometer or automatically in well plates on a fluorescence plate reader device. Fluorescence titrations are performed at 20° C. in the chosen binding assay buffer by using a defined constant protein concentration against ligand concentration variations. Small aliquots of known ligand concentration solubilized in DMSO were added and the fluorescence, excited at 280 nm, was recorded at 340 nm. The fluorescence intensity was corrected for protein dilution and for the filter effect (Birdsall et al.^69). The corrected fluorescence intensity was plotted against the ligand concentration and fitted using a four-parameter sigmoidal function, from which the equilibrium dissociation constant Kd was computed using the law of mass action assuming a 1:1 protein-ligand complex (Eftink, 1997^70).
Process • 1) Optimization of measurement parameters to minimize protein consumption and to minimize the dilution effect and the DMSO content • 2) Titration measurements of the protein against ligand by at least 12 titration steps to obtain a good s-curve fit • 3) Repeat the same titration measurements with the ligand alone to enable correction • 4) Check the stability of the protein once by titration against DMSO alone • 5) Determination of the molar extinction coefficients of the ligand at 280 and 340 nm with help of an UV-spectrophotometer • 6) Use Excel template for the correction of the measured raw data • 7) Use GraphPad Prism software for the quadratic binding fit and the KD evaluation.
hCereblon(M1-L442)_hDDB1(M1-H1140), sequence (Q96SW2 whole entry): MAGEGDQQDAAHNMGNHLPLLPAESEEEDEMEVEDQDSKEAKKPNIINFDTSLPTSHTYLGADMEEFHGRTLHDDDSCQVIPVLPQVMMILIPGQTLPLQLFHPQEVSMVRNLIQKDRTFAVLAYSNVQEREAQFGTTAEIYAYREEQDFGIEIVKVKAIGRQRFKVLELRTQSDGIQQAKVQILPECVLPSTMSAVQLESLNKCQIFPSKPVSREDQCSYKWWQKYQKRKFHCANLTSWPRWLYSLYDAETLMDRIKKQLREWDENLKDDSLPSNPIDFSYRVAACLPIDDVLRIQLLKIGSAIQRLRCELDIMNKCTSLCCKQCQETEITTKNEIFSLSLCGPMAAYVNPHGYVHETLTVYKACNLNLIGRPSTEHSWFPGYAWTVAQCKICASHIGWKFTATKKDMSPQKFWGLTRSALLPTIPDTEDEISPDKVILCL
hCereblon(M1-L442)_hDDB1(M1-H1140), sequence (Q16531 whole entry partner): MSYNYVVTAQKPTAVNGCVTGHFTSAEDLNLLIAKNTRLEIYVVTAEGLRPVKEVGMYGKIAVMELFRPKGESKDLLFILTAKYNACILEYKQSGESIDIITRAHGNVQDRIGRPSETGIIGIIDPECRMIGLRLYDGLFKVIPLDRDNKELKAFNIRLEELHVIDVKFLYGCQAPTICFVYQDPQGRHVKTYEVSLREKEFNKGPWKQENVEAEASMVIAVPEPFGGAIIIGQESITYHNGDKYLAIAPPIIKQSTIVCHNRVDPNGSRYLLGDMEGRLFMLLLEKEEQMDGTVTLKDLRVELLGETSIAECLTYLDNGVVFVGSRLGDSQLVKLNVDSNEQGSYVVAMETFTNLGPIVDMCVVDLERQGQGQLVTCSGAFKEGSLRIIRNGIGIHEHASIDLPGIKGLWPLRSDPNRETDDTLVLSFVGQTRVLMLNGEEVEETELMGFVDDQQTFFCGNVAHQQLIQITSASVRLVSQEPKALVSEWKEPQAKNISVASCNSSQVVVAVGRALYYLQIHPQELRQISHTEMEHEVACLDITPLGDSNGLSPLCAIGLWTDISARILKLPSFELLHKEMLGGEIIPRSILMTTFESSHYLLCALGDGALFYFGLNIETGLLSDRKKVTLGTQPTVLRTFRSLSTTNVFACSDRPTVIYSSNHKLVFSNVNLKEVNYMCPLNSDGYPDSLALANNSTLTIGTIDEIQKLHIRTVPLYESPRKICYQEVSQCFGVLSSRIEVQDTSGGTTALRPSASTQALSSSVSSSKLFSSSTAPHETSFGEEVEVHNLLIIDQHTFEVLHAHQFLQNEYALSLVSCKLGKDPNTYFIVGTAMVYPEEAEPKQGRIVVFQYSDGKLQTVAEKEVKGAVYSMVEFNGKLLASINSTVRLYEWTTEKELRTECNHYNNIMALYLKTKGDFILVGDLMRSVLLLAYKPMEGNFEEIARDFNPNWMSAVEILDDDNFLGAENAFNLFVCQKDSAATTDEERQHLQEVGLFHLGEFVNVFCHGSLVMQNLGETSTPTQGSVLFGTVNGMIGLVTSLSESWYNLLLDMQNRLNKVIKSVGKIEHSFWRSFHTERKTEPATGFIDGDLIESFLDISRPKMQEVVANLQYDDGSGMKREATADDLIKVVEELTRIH
Turning to `CC(C)(C)OC(=O)Nc1ccc2c(c1)CCN2Cc1ccc2[nH]c(=O)[nH]c2c1` [Example 148, tert-Butyl (1-((2-oxo-2,3-dihydro-1H-benzo[d]imidazol-5-yl)methyl)indolin-5-yl)carbamate], the Kd is 19 nM.

As for `O=c1[nH]c2ccc(NS(=O)(=O)C3CCNCC3)cc2[nH]1` [Example 134, N-(2-Oxo-2,3-dihydro-1H-benzo[d]imidazol-5-yl)piperidine-4-sulfonamide], the Kd stood at 7 nM. Under `COC(=O)c1ccc(Nc2ccc3[nH]c(=O)[nH]c3c2)nc1` [Example 153, Methyl 6-((2-oxo-2,3-dihydro-1H-benzo[d]imidazol-5-yl)amino)nicotinate] stands 16 nM.

Regarding `O=c1[nH]c2ccc(-n3c(C(O)c4ccccc4)nc4ccccc43)cc2[nH]1` (stereo not shown) [Example 85, 5-[2-[Hydroxy(phenyl)methyl]benzimidazol-1-yl]-1,3-dihydrobenzimidazol-2-one], the Kd amounted to 3 nM.

For `Cn1c(=O)[nH]c2nc(-c3ccccc3)ccc21` [Example 44, 1-Methyl-5-phenyl-3H-imidazo[4,5-b]pyridin-2-one], the Kd was under 1 nM. Consider `O=c1[nH]c2ccc(-c3ccc(-n4cccc4)cc3)cc2[nH]1` [Example 41, 5-(4-Pyrrol-1-yl-phenyl)-1,3-dihydro-benzoimidazol-2-one], for which the Kd came to 18 nM. With `Cn1c(=O)[nH]c2ccc(Nc3ccccc3N)cc21` [Example 52, 6-((2-Aminophenyl)amino)-1-methyl-1,3-dihydro-2H-benzo[d]imidazol-2-one], the Kd was 6 nM.

In the case of `O=c1[nH]c2ccc(N3CCNCC3)cc2[nH]1` [Example 58, 5-(Piperazin-1-yl)-1,3-dihydro-2H-benzo[d]imidazol-2-one], the Kd was determined as 12 nM. For `CC(C)c1nc2ccccc2n1-c1ccc2[nH]c(=O)n(C)c2c1` [Example 35, 2-Isopropyl-3′-methyl-1′,3′-dihydro-2′H-[1,5′-bibenzo[d]imidazol]-2′-one], the Kd worked out at 24 nM. On to `CCc1nc2cc(C(=O)NC)ccc2n1-c1ccc2[nH]c(=O)[nH]c2c1` [Example 4, 2-Ethyl-N-methyl-2′-oxo-2′,3′-dihydro-1′H-[1,5′-bibenzo[d]imidazole]-5-carboxamide], for which the Kd is 36 nM.

On to `CC(C)(C)OC(=O)Nc1ccc2c(c1)CCN2C(=O)Nc1ccc2[nH]c(=O)[nH]c2c1` [Example 119, tert-Butyl (1-((2-oxo-2,3-dihydro-1H-benzo[d]imidazol-5-yl)carbamoyl)indolin-5-yl)carbamate], for which the Kd turned out to be 113 nM. Under `CCc1nc2cc(C(=O)NCCCCCNC(=O)C[C@@H]3N=C(c4ccc(Cl)cc4)c4c(sc(C)c4C)-n4c(C)nnc43)ccc2n1-c1ccc2[nH]c(=O)[nH]c2c1` [Example A, N-(5-(2-((6S)-4-(4-chlorophenyl)-2,3,9-trimethyl-6H-thieno[3,2-f][1,2,4]triazolo[4,3-a][1,4]diazepin-6-yl)acetamido)pentyl)-2-ethyl-2′-oxo-2′,3′-dihydro-1′H-[1,5′-bibenzo[d]imidazole]-5-carboxamide] stands 55 nM. In the case of `CNC(=O)c1ccc2c(c1)nc(-c1cc[nH]c1)n2-c1ccc2[nH]c(=O)[nH]c2c1` [Example 66, N-Methyl-2′-oxo-2-(1H-pyrrol-3-yl)-2′,3′-dihydro-1′H-[1,5′-bibenzo[d]imidazole]-5-carboxamide], the Kd was determined as 51 nM. Under `CN(C(=O)c1ccc2[nH]c(=O)[nH]c2c1)c1ccccc1` [Example 96, N-Methyl-2-oxo-N-phenyl-2,3-dihydro-1H-benzo[d]imidazole-5-carboxamide] stands 9 nM. For the compound `O=c1[nH]c2ccc(NS(=O)(=O)c3coc4ccccc34)cc2[nH]1` [Example 137, N-(2-Oxo-2,3-dihydro-1H-benzo[d]imidazol-5-yl)benzofuran-3-sulfonamide], the Kd stood at 22 nM. With `CCc1nc2cc(C(=O)NCCOCCOCCNC(=O)C[C@@H]3N=C(c4ccc(Cl)cc4)c4c(sc(C)c4C)-n4c(C)nnc43)ccc2n1-c1ccc2[nH]c(=O)[nH]c2c1` [Example B, (S)—N-(2-(2-(2-(2-(4-(4-Chlorophenyl)-2,3,9-trimethyl-6H-thieno[3,2-f][1,2,4]triazolo[4,3-a][1,4]diazepin-6-yl)acetamido)ethoxy)ethoxy)ethyl)-2-ethyl-2′-oxo-2′,3′-dihydro-1′H-[1,5′-bibenzo[d]imidazole]-5-carboxamide], the Kd stood at 51 nM. Under `CNC(=O)c1ccc2c(c1)nc(C(F)(F)F)n2-c1ccc2[nH]c(=O)[nH]c2c1` [Example 13, N-Methyl-2′-oxo-2-(trifluoromethyl)-2′,3′-dihydro-1′H-[1,5′-bibenzo[d]imidazole]-5-carboxamide] stands 7 nM. Turning to `CC(=O)N1CCN(c2ccc3[nH]c(=O)[nH]c3c2)CC1` [Example 62, 5-(4-Acetylpiperazin-1-yl)-1,3-dihydro-2H-benzo[d]imidazol-2-one], the Kd was under 1 nM. Under `COc1cccc(-c2ncccc2C(=O)Nc2ccc3[nH]c(=O)[nH]c3c2)c1` [Example 138, 2-(3-Methoxyphenyl)-N-(2-oxo-2,3-dihydro-1H-benzo[d]imidazol-5-yl)nicotinamide] stands 109 nM; under `CC(=O)N1CCC(NC(=O)c2cnc3[nH]c(=O)[nH]c3c2)CC1` [Example 56, N-(1-Acetylpiperidin-4-yl)-2-oxo-2,3-dihydro-1H-imidazo[4,5-b]pyridine-6-carboxamide], 2 nM; under `CNC(=O)c1ccc2c(c1)nc(-c1cccc(COC)c1)n2-c1ccc2[nH]c(=O)[nH]c2c1` [Example 57, 2-(3-(Methoxymethyl)phenyl)-N-methyl-2′-oxo-2′,3′-dihydro-1′H-[1,5′-bibenzo[d]imidazole]-5-carboxamide], 7 nM.

For `O=C(NCc1ccccc1)Nc1ccc2[nH]c(=O)[nH]c2c1` [Example 94, 1-Benzyl-3-(2-oxo-2,3-dihydro-1H-benzo[d]imidazol-5-yl)urea], the Kd was under 1 nM. Turning to `O=c1[nH]c2ccc(S(=O)(=O)N3CCc4ccccc43)cc2[nH]1` [Example 116, 5-(Indolin-1-ylsulfonyl)-1,3-dihydro-2H-benzo[d]imidazol-2-one], the Kd is 48 nM. On to `O=C(Nc1ccc2[nH]c(=O)[nH]c2c1)c1ccccc1-c1ccncc1` [Example 136, N-(2-Oxo-2,3-dihydro-1H-benzo[d]imidazol-5-yl)-2-(pyridin-4-yl)benzamide], for which the Kd was determined as 79 nM. For the compound `Nc1ccc(CC(=O)Nc2ccc3[nH]c(=O)[nH]c3c2)cc1` [Example 70, 2-(4-Aminophenyl)-N-(2-oxo-2,3-dihydro-1H-benzo[d]imidazol-5-yl)acetamide], the Kd turned out to be 1 nM. As for `CNC(=O)c1ccc2c(c1)nc(C(C)(C)C)n2-c1ccc2[nH]c(=O)[nH]c2c1` [Example 46, 2-(tert-Butyl)-N-methyl-2′-oxo-2′,3′-dihydro-1′H-[1,5′-bibenzo[d]imidazole]-5-carboxamide], the Kd was determined as 10 nM.

Turning to `COc1ccc(Cc2ccc3[nH]c(=O)[nH]c3c2)cc1` [Example 39, 5-[(4-Methoxyphenyl)methyl]-1,3-dihydrobenzimidazol-2-one], the Kd came out at 6 nM. Under `COC(=O)c1cccc2c1CCN2C(=O)Nc1ccc2[nH]c(=O)[nH]c2c1` [Example 89, Methyl 1-((2-oxo-2,3-dihydro-1H-benzo[d]imidazol-5-yl)carbamoyl)indoline-4-carboxylate] stands 25 nM; under `COC(=O)c1ccccc1C(=O)Nc1ccc2[nH]c(=O)[nH]c2c1` [Example 151, Methyl 2-((2-oxo-2,3-dihydro-1H-benzo[d]imidazol-5-yl)carbamoyl)benzoate], 52 nM; under `CC(C)(C)OC(=O)N1CCC(S(=O)(=O)Nc2ccc3[nH]c(=O)[nH]c3c2)CC1` [Example 125, tert-Butyl 4-(N-(2-oxo-2,3-dihydro-1H-benzo[d]imidazol-5-yl)sulfamoyl)piperidine-1-carboxylate], 20 nM.

On to `CNC(=O)c1ccc2c(c1)nc(C1CCC(OC)CC1)n2-c1ccc2[nH]c(=O)[nH]c2c1` (stereo not shown) [Example 131, 2-(4-Methoxycyclohexyl)-N-methyl-2′-oxo-2′,3′-dihydro-1′H-[1,5′-bibenzo[d]imidazole]-5-carboxamide], for which the Kd was 10 nM.

In the case of `CC(=O)N1[C@@H]2CC[C@H]1CN(c1ccc3[nH]c(=O)[nH]c3c1)C2` [Example 63, 5-[rac-(1S,5R)-8-Acetyl-3,8-diazabicyclo[3.2.1]octan-3-yl]-1,3-dihydrobenzimidazol-2-one], the Kd was determined as 79 nM. Regarding `CNC(=O)c1ccc2c(c1)nc(C(C)C)n2-c1cnc2[nH]c(=O)[nH]c2c1` [Example 79, 2-Isopropyl-N-methyl-1-(2-oxo-1,3-dihydroimidazo[4,5-b]pyridin-6-yl)benzimidazole-5-carboxamide], the Kd turned out to be 4 nM. With `O=C(c1ccc2[nH]c(=O)[nH]c2c1)N1CCCc2ccccc21` [Example 97, 5-(1,2,3,4-Tetrahydroquinoline-1-carbonyl)-1,3-dihydro-2H-benzo[d]imidazol-2-one], the Kd turned out to be 9 nM.

The values are drawn from patent US11787802B2, “Dihydrobenzimidazolones for medical treatment” (C4 Therapeutics, Inc., priority 2017, dated 2023).
